In PubChem BioAssay AID179 (DTP/NCI, 2004):
Calls of active or inactive are those of the source.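 How the source made its calls: active means compounds giving half or more protection of infected cells from virus-caused growth loss, again on retest; inactive means the rest.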

System: CEM cells HIV-1 protection, formazan growth assay
Assay: NCI AIDS Antiviral Assay
Details: for IC50: measured here: growth of uninfected CEM cells
How it was run: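 Category rules: moderately active means at least 50% protection on retest, and confirmed active means 100% protection reproducibly. The underlying data came from a formazan growth assay in HIV-1-infected CEM cells.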

SMILES	outcome	EC50 [µM]	IC50 [µM]
O=C1NC(c2cccc(Cl)c2)N2C(=O)NC(c3cccc(Cl)c3)N12 (stereo not drawn)	inactive		
C=C(CN(C)C)c1ccccn1		> 200	> 200
O=C1/C(=C/c2ccccc2)CCCc2ccccc21		> 200	21.4
CC(C)(C)c1cc(C2COC(c3cc(C(C)(C)C)c(O)c(C(C)(C)C)c3)CO2)cc(C(C)(C)C)c1O (stereo not drawn)		> 50.1	> 50.1
N/C(CCCC/C(N)=N/O)=N\O		> 200	> 200
COC(=O)c1ccccc1C#CC#Cc1ccccc1C(=O)OC		> 200	24
C=C(C)COC(=O)C1CC2OC2CC1C(=O)OCC(=C)C (stereo not drawn)		> 200	166
CC(=O)O/N=C(Cl)/C(Cl)=N/OC(C)=O	inactive		
O=C1C2CC=CCC2C(=O)N1n1c(-c2ccccc2)n[nH]c1=O (stereo not drawn)		> 200	> 200
Nc1nc(Cl)cc(NCC2(CO)CCCCC2)n1		> 200	105
COc1ccccc1-n1c(=S)n(-c2ccccc2C)c2nc3ccccc3nc1/c2=N\Nc1ccccn1		> 200	> 200
COC(=O)C1=COC(C)C2Cn3ccc4c5ccccc5nc-4c3CC12 (stereo not drawn)		> 129	75.9
COc1ccc2c(ccc3c(C(=O)NCCCN(C)CCCNC(=O)c4cn(C)c5c4ccc4cc(OC)ccc45)cn(C)c32)c1		> 200	1.15
C=C[C@]1(C)CC[C@]2(C)C(CC[C@@]3(C)C2C[C@H](O)[C@H](O)[C@@]3(C)O)C1 (stereo partly drawn)		> 200	141
CCOC(=O)C1C(c2ccco2)C2(C#N)C(=N)OC1(C)C2(C#N)C#N (stereo not drawn)		> 200	64.6
CN=C(NC#N)NCc1ccccc1		> 1320	1200
Cn1ncc2c(c1=O)Nc1ccccc1S2(=O)=O		> 112	> 112
COc1cc(Br)c(C=Nc2cccc3ccc(OS(=O)(=O)c4ccc([N+](=O)[O-])cc4)cc23)cc1OC		> 17.4	> 17.4
COc1ccc2ccccc2c1C1=NC(C)(C)CO1		> 977	479
O=C(ON=c1c2ccccc2ccc2ccccc12)c1cc([N+](=O)[O-])cc([N+](=O)[O-])c1		> 200	20.4
N#C/C(N)=C(\C#N)N=C1OCC(O)C(O)C1O (stereo not drawn)	inactive		

SMILES	outcome	EC50 [µM]	IC50 [µM]
CC12c3c4cc(Br)cc3Oc3cc(Br)cc(c31)Oc1cc(Br)cc(c12)O4		> 200	33.1
CC(C)N(c1cc2c(cc1F)c(=O)c(C(=O)O)cn2-c1ccc(N2CCN(C)CC2)cn1)C(C)C		> 200	> 200
CCCCCCCCCCCCCCCCOCC(Cl)COP(=O)(O)OP(=O)(O)OCC1OC(n2cnc3c(N)ncnc32)C(O)C1O (stereo not drawn)		> 100	> 100
CN(C)CCC(=O)N1CCc2c([nH]c3ccccc23)C1c1cccnc1 (stereo not drawn)		> 372	> 372
N#Cc1c(N2CCCC2)ncn(-c2ccccc2)c1=S		> 200	> 200
O=C1Nc2cc(Cl)ccc2C(=O)N2CCC[C@@H]12		> 200	> 200
COc1ccc2c(c1)c1c(n2CCN2CCOCC2)-c2ccccc2CC1	inactive		
Cc1c2ccccc2nc(CSCc2ccccc2)[n+]1[O-]		> 200	162
COc1cc(C2C(C(=O)Nc3ccc(Cl)c(Cl)c3)=C(C)NC(C)=C2C(=O)Nc2ccc(Cl)c(Cl)c2)ccc1O		> 22.4	12.6
c1ccc2c(c1)SCCc1nncn1-2		> 437	> 437
Cc1cc(C(=O)CSC(=S)SC(C)(C)C)ccc1Cl		> 30.2	> 30.2
O=C1c2ccccc2-c2c1c1ccccc1c(=O)n2Cc1ccccc1		> 29.5	> 29.5
O=C1C2C3CCC(C3)C2C(=O)C2C3CCC(C3)C12 (stereo not drawn)		> 200	186
C[C@@H]1CC/C=C(/[Si](C)(C)C)C[C@H](C)O1		> 1170	> 1170
NNC(=O)C1C(O)CCC2CN3CCc4c([nH]c5ccccc45)C3CC21 (stereo not drawn)	inactive		
CC(C)O[C@H]1N(C2CC(N=[N+]=[N-])C(CO)O2)C(=O)NC(=O)[C@]1(C)Cl (stereo partly drawn)		> 200	> 200
O=C(O)CCC1CCc2cccc3occ1c23 (stereo not drawn)	inactive		
COC(=O)c1cc(C(=CC=O)c2cc(Cl)c(OC)c(C(=O)OC)c2)cc(Cl)c1OC		> 200	8.91
c1ccc(N2CCN(CCN3CCc4c([nH]c5ccccc45)C3c3cccnc3)CC2)cc1 (stereo not drawn)		> 2.4	> 2.4
O=C(CN1C(=O)c2cccc3c(Br)ccc(c23)C1=O)c1ccc(Cl)cc1		> 200	33.1
O=C1OCCOCCOC(=O)c2cccc(n2)C(=O)OCCOCCOC(=O)c2cccc1n2		> 525	> 525
